Laboratory results as given in patent US9752168B2, “Compositions comprising a polypeptide having cellulolytic enhancing activity and a quinone compound and uses thereof” (priority 2010, dated 2017).
Read-outs that look alike come from different tables or passages of the source.

Legend:
[1] = tested on: Trichoderma reesei cellulase composition; experiment: Hydrolysis of AVICEL® (microcrystalline cellulose) by the T. reesei cellulase composition; conditions: for quinone compound effect(no GH61) (ratio, Equation 2): AVICEL®; for Percent conversion of AVICEL®: no quinone compound, cellulase 4 mg protein/g cellulose, GH61 polypeptide where present 0.4 mg/g cellulose (10% w/w of cellulase)
[2] = tested on: Trichoderma reesei cellulase composition; conditions: milled washed PCS
[3] = tested on: Trichoderma reesei cellulase composition; conditions: milled unwashed PCS; 5 mM quinone; 1, 3, and 7 days (white bars)
[4] = tested on: Thielavia terrestris GH61E polypeptide; assay type: biochemical; conditions: AVICEL®, T. terrestris GH61E 0.4 or 2 mg per ml
[5] = tested on: Penicillium pinophilum GH61A polypeptide; assay type: biochemical; conditions: P. pinophilum GH61A 0.4 or 2 mg per ml
[6] = target: Aspergillus fumigatus GH61B polypeptide (Aspergillus fumigatus, UniProt Q4WP32); assay type: biochemical; conditions: A. fumigatus GH61B 0.4 or 2 mg per ml
Chain of Aspergillus fumigatus GH61B polypeptide (Q4WP32 22-250): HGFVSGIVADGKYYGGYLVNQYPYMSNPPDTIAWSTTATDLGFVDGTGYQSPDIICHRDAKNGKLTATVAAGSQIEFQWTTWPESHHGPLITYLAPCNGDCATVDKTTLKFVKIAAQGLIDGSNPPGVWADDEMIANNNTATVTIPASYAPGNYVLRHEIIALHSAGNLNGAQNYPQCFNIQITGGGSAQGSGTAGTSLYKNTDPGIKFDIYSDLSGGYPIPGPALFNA

[7] = tested on: Talaromyces stipitatus GH61 polypeptide; assay type: biochemical; conditions: T. stipitatus GH61 0.4 or 2 mg per g cellulose
[8] = target: A. oryzae CEL3A beta-glucosidase (Aspergillus oryzae, UniProt Q2UUD6); assay type: biochemical; conditions: 96 hours at 50° C.
[9] = tested on: A. oryzae CEL3A beta-glucosidase; assay type: biochemical; conditions: 96 hours at 50° C.
[10] = 5 mM quinone, 1, 3, and 7 days (white bars)
[11] = AVICEL®, 5 mM quinone present, days 3 and 7
[12] = AVICEL®, 5 mM quinone, day 1 and 3
[13] = quinone added to A. oryzae CEL3A beta-glucosidase (10 mg/g cellulose), no GH61A
[14] = quinone with T. aurantiacus GH61A polypeptide (10 mg/g cellulose) and A. oryzae CEL3A beta-glucosidase (10 mg/g cellulose)
[15] = component added alone, beta-glucosidase or GH61A 10 mg protein per g cellulose, adrenochrome […] w/w, 4-tert-butyl-5-methoxy-1,2-benzoquinone 0.15% w/w
[16] = quinone with T. aurantiacus GH61A polypeptide (10 mg/g cellulose), no beta-glucosidase

O=C1c2ccccc2C(=O)c2c(O)ccc(O)c21
quinone compound effect(no GH61) (ratio, Equation 2) ([1]; 1 mM quinone, 3 days of hydrolysis): 0.932±0.0123
quinone compound effect(no GH61) (ratio, Equation 2) ([1]; 1 mM quinone, 7 days of hydrolysis): 1.01±0.0120

O=C1C=C(O)C(=O)c2ccccc21
quinone compound effect(no GH61) (ratio, Equation 2) ([1]; 1 mM quinone, FIG. 1E white bars): less than 1

COC1=C(OC)C(=O)C(C)=CC1=O
quinone compound effect(no GH61) (ratio, Equation 2) ([2]; 10 mM quinone, 1 and 3 days, cellulase 2 mg per g cellulose): less than 1
quinone compound effect(no GH61) (ratio, Equation 2) ([1]; 5 mM quinone, day 3 and 7): less than 1
quinone compound effect(no GH61) (ratio, Equation 2) ([1]; 10 mM quinone, 1 and 3 days): less than 1
quinone compound effect(no GH61) (ratio, Equation 2) [3]: greater than 1

O=C1C=CC(=O)C=C1 [1,4-benzoquinone]
quinone compound effect(no GH61) (ratio, Equation 2) [1, 10]: less than 1

O=C1C=CC(=O)c2ccccc21 [1,4-naphthoquinone]
quinone compound effect(no GH61) (ratio, Equation 2) [2, 10]: less than 1
quinone compound effect(no GH61) (ratio, Equation 2) [1, 10]: less than 1

CC1=CC(=O)C=CC1=O [2-methyl-1,4-benzoquinone]
GH61 effect (ratio, Equation 4) ([4]; 5 mM quinone present, days 3 and 7): greater than 1
quinone compound effect(+GH61) (ratio, Equation 3) ([4]; 5 mM quinone, day 7): less than 1
Day 7 hydrolysis of AVICEL® in the presence of quinone and GH61 polypeptide ([5]; 5 mM quinone, day 7): not significantly impacted
GH61 effect (ratio, Equation 4) [5, 11]: greater than 1
quinone compound effect(+GH61) (ratio, Equation 3) [5, 12]: less than 1
Day 7 hydrolysis of AVICEL® in the presence of quinone and GH61 polypeptide ([6]; 5 mM quinone, day 7): not significantly impacted
GH61 effect (ratio, Equation 4) [6, 11]: greater than 1
quinone compound effect(+GH61) (ratio, Equation 3) [6, 12]: less than 1
quinone compound effect(no GH61) (ratio, Equation 2) [1, 10]: less than 1
Day 7 hydrolysis of AVICEL® in the presence of quinone and GH61 polypeptide ([7]; 5 mM quinone, day 7): not significantly impacted
GH61 effect (ratio, Equation 4) [7, 11]: greater than 1
quinone compound effect(+GH61) (ratio, Equation 3) [7, 12]: less than 1

COC1=CC(=O)C(=O)C=C1C(C)(C)C [4-tert-butyl-5-methoxy-1,2-benzoquinone]
conversion of PASC [8, 13]: 1.6±0.1%
conversion of PASC [8, 14]: 29.9±3.2%
conversion of PASC [9, 15]: no significant conversion
conversion of PASC [9, 16]: 0.8±0.6%

CN1CC(O)C2=CC(=O)C(=O)C=C21 (stereo not shown) [adrenochrome, 3-hydroxy-1-methyl-5,6-indolinedione]
conversion of PASC [8, 13]: 0.3±0.3%
conversion of PASC [8, 14]: 8.5±2.0%
conversion of PASC [9, 15]: no significant conversion
conversion of PASC [9, 16]: 0.1±0.1%

B1: P. pinophilum GH61A polypeptide: GH61A polypeptide having cellulolytic enhancing activity (SEQ ID NO: 32), recombinantly prepared according to WO 2011/005867 (protein, listed as Penicillium pinophilum)
chain: MPSTKVAALSAVLALASTVAGHGFVQNIVIDGKSYSGYLVNQFPYESNPPAVIGWATTATDLGFVAPSEYTNADIICHKNATPGALSAPVAAGGTVELQWTTWPDSHHGPVISYLANCNGNCSTVDKTKLDFVKIDQGGLIDDTTPPGTWASDKLIAANNSWTVTIPSTIAPGNYVLRHEIIALHSAGNADGAQNYPQCINLEITGSGTAAPSGTAGEKLYTSTDPGILVNIYQSLSTYVIPGPTLWSGAANGAVATGSATAVATTATASATATPTTLVTSVAPASSTFATAVVTTVAPAVTDVVTVTDVVTVTTVITTTVL
Percent conversion of AVICEL® ([1]; 1 day): 14.1±0.4%
Percent conversion of AVICEL® ([1]; 3 days): 28.5±0.5%
Percent conversion of AVICEL® ([1]; 7 days): 46±2%

B2: T. stipitatus GH61 polypeptide: GH61 polypeptide having cellulolytic enhancing activity (SEQ ID NO: 164), recombinantly prepared as described in Example 3 (protein, listed as Talaromyces stipitatus)
chain: MPSTKVAALSAVLALASTVAGHGFVQNIVIDGKSYTGYLVNQYPYQSNPPAVIGWSTTATDLGFVDGSGYTNPDIICHKNAKPGQLSAPVAAGGKVELEWTTWPESHHGPVISYLANCNGDCTTVDKTKLEFVKIDQRGLIDDSNPPGTWAADQLIAANNSWTVTIPESIAPGNYVLRHEIIALHSANNATGAQNYPQCINLQITGSGTANPSGTPGEKLYTPTDPGILVNIYQSLSSYVIPGPTLWSGAAAHVVATAAGSATGVASATATPTTLVTAVSSPTGAPSVVTPEAPSVTSFAPVVTVTDVVTVTTVITTTIS
Percent conversion of AVICEL® ([1]; 1 day): 13.6±0.4%
Percent conversion of AVICEL® ([1]; 3 days): 27.9±0.2%
Percent conversion of AVICEL® ([1]; 7 days): 44.7±0.5%

B3: T. reesei GH61B polypeptide: GH61B polypeptide having cellulolytic enhancing activity (SEQ ID NO: 16), recombinantly prepared according to WO 2007/089290 A2 (protein, listed as Trichoderma reesei)
chain: MKSCAILAALGCLAGSVLGHGQVQNFTINGQYNQGFILDYYYQKQNTGHFPNVAGWYAEDLDLGFISPDQYTTPDIVCHKNAAPGAISATAAAGSNIVFQWGPGVWPHPYGPIVTYVVECSGSCTTVNKNNLRWVKIQEAGINYNTQVWAQQDLINQGNKWTVKIPSSLRPGNYVFRHELLAAHGASSANGMQNYPQCVNIAVTGSGTKALPAGTPATQLYKPTDPGILFNPYTTITSYTIPGPALWQG
Percent conversion of AVICEL® ([1]; 1 day): 13.6±0.4%
Percent conversion of AVICEL® ([1]; 3 days): 29±2%
Percent conversion of AVICEL® ([1]; 7 days): 44±2%

B4: A. oryzae CEL3A beta-glucosidase: beta-glucosidase (SEQ ID NO: 112) recombinantly prepared as described in WO 2004/099228 (protein, listed as Aspergillus oryzae)
chain: MKLGWIEVAALAAASVVSAKDDLAYSPPFYPSPWADGQGEWAEVYKRAVDIVSQMTLTEKVNLTTGTGWQLERCVGQTGSVPRLNIPSLCLQDSPLGIRFSDYNSAFPAGVNVAATWDKTLAYLRGQAMGEEFSDKGIDVQLGPAAGPLGAHPDGGRNWEGFSPDPALTGVLFAETIKGIQDAGVIATAKHYIMNEQEHFRQQPEAAGYGFNVSDSLSSNVDDKTMHELYLWPFADAVRAGVGAVMCSYNQINNSYGCENSETLNKLLKAELGFQGFVMSDWTAHHSGVGAALAGLDMSMPGDVTFDSGTSFWGANLTVGVLNGTIPQWRVDDMAVRIMAAYYKVGRDTKYTPPNFSSWTRDEYGFAHNHVSEGAYERVNEFVDVQRDHADLIRRIGAQSTVLLKNKGALPLSRKEKLVALLGEDAGSNSWGANGCDDRGCDNGTLAMAWGSGTANFPYLVTPEQAIQNEVLQGRGNVFAVTDSWALDKIAAAARQASVSLVFVNSDSGEGYLSVDGNEGDRNNITLWKNGDNVVKTAANNCNNTVVIIHSVGPVLIDEWYDHPNVTGILWAGLPGQESGNSIADVLYGRVNPGAKSPFTWGKTRESYGSPLVKDANNGNGAPQSDFTQGVFIDYRHFDKFNETPIYEFGYGLSYTTFELSDLHVQPLNASRYTPTSGMTEAAKNFGEIGDASEYVYPEGLERIHEFIYPWINSTDLKASSDDSNYGWEDSKYIPEGATDGSAQPRLPASGGAGGNPGLYEDLFRVSVKVKNTGNVAGDEVPQLYVSLGGPNEPKVVLRKFERIHLAPSQEAVWTTTLTRRDLANWDVSAQDWTVTPYPKTIYVGNSSRKLPLQASLPKAQ
conversion of PASC [9, 15]: 1.5±0.3%

B5: T. terrestris GH61E polypeptide: GH61E polypeptide having cellulolytic enhancing activity (SEQ ID NO: 8), recombinantly prepared according to WO 2005/074647 A2 (protein, listed as Thielavia terrestris)
chain: MLANGAIVFLAAALGVSGHYTWPRVNDGADWQQVRKADNWQDNGYVGDVTSPQIRCFQATPSPAPSVLNTTAGSTVTYWANPDVYHPGPVQFYMARVPDGEDINSWNGDGAVWFKVYEDHPTFGAQLTWPSTGKSSFAVPIPPCIKSGYYLLRAEQIGLHVAQSVGGAQFYISCAQLSVTGGGSTEPPNKVAFPGAYSATDPGILINIYYPVPTSYQNPGPAVFSC
Percent conversion of AVICEL® ([1]; 1 day): 14.7±0.3%
Percent conversion of AVICEL® ([1]; 3 days): 29.2±0.4%
Percent conversion of AVICEL® ([1]; 7 days): 49.3±0.5%
